Test results: patent publication US11149031B2, “Substituted N-(3-fluoropropyl)-pyrrolidine compounds, processes for their preparation and therapeutic uses thereof” (SANOFI, priority 2016, dated 2021)
Where two headings read alike, the source gives them in different places.

Experiments:
[1] = biological target: His6-ERα298-554 WT (ERα ligand-binding domain) (Homo sapiens (Human), UniProt P03372); test: Test A: biochemical antagonist activity, LanthaScreen TR-FRET ERα coactivator assay, WT; settings: read-out: Antagonism WT IC50
In short: (§1)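 His6-ERα LBD (aa 298–554), 0.5 nM, with Tb-anti-His6 antibody, 250 nM PGC1a peptide and 3 nM (or 10 nM) estradiol in pH 7.4 potassium phosphate/DTT buffer; incubated with compound overnight at room temperature. IC50 from 4-parameter logistic fit of TR-FRET 520:495 nm ratio.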

[2] = biological target: His6-ERα298-554 D538G mutant (ERα ligand-binding domain) (Homo sapiens (Human), UniProt P03372, D538G); test: Test A: biochemical antagonist activity, LanthaScreen TR-FRET ERα coactivator assay, D538G mutant; settings: read-out: Antagonism D538G IC50
In short: as §1

[3] = biological target: His6-ERα298-554 Y537S mutant (ERα ligand-binding domain) (Homo sapiens (Human), UniProt P03372, Y537S); test: Test A: biochemical antagonist activity, LanthaScreen TR-FRET ERα coactivator assay, Y537S mutant; settings: read-out: Antagonism Y537S IC50
In short: as §1

[4] = system: MCF7 cells (breast tumor cells) WT; test: Test B: cell proliferation/viability assay (CellTiter-Glo) on MCF7 WT; type: cell-based; settings: Homo sapiens, MCF7, 168 h, 7 days of compound exposure
Procedure: (§2) Test B: Cell Proliferation/Viability Assay on MCF7 (Breast Tumor Cells) WT and Mutants Cell Lines
(§3) Test B involves measuring the in vitro proliferation activity of the compounds of the invention by analyzing the viability of the tumor cells.
The measurements of the viability were made using a breast cancer cell viability assay as described hereunder. […]
(§4) MCF7 cells (ATCC) or MCF7 cells expressing (and dependent) on mutants estrogen receptor Tyr 537 Ser or Asp 538 Gly were seeded in 384 wells microplate at concentration of >999 cells/30 μL per well in red phenol free MEM medium containing 5% charcoal dextran striped FBS. The following day, 9 points serial 1:5 dilution of each compound were added to the cells in 20 μL at final concentrations ranging from 3-0.000001 μM. After 7 days of compound exposure, 50 μL of CellTiter-Glo (promega) was added to the cells and relative luminescence arbitrary units (RLUs) were determined in luminescence plate reader (Envision device). CellTiter-Glo was added to 50 μL medium without cells to determine the background signal.
(§5) The percent of viability of each sample was determined as follows: (RLU sample−RLU background/RLU untreated−RLU background)*100=% viability.

[5] = system: MCF7 cells expressing mutant estrogen receptor Tyr 537 Ser; test: Test B: cell proliferation/viability assay (CellTiter-Glo) on MCF7 Tyr 537 Ser mutant; type: cell-based; settings: Homo sapiens, MCF7, 168 h, MCF7 cells expressing ER Tyr 537 Ser mutant, 7 days of compound exposure, read-out: proliferation MCF7 Y537S IC50
From the text: as §2, §3
(§6) The measurements of the viability were made using a breast cancer cell viability assay as described hereunder.
(§7) MCF7 cells expressing (and dependent) on mutants estrogen receptor Tyr 537 Ser or Asp 538 Gly were generated by transfection of MCF7 parental cells (ATCC) with expression vectors coding for different mutants of estrogen receptor Tyr 537 Ser or Asp 538 Gly. The cells were first selected by antibiotic (related to vector expression) and then selected for their growth dependence on estrogen receptor based on their ability to grow in vitro in absence of estradiol (parental cell line die in absence of estradiol).
as §4, §5

[6] = system: MCF7 cells expressing mutant estrogen receptor Asp 538 Gly; test: Test B: cell proliferation/viability assay (CellTiter-Glo) on MCF7 Asp 538 Gly mutant; type: cell-based; settings: Homo sapiens, MCF7, 168 h, MCF7 cells expressing ER Asp 538 Gly mutant, 7 days of compound exposure, read-out: proliferation MCF7 D538G IC50
From the text: as §2, §3, §6, §7, §4, §5

ERα in MCF7 cells = ERα in MCF7 cells (Homo sapiens (Human), UniProt P03372); test: Test C: estrogen receptor degradation activity, ERα in cell western assay in MCF7 cells; type: cell-based; settings: for DC50: 4 hours post compound addition, ERα in cell western, read-out: Degradation IC50; for % Degradation at 3 μM: 4 hours, relative to fulvestrant
In short: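 In-cell western, MCF7, 4 h compound exposure, 3–0.000018 μM final, 9 points, 1:5 steps. Formalin/Triton fix, anti-ER rabbit mAb overnight cold, Alexa 488 secondary plus 2 μM Syto-64. Green intensity = ERα, red = DNA; no-primary wells as background.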

[7] = asterisk (*): protocol using 10 nM estradiol

Sequence of His6-ERα298-554 Y537S mutant (ERα ligand-binding domain) (P03372 298-554 Y537S): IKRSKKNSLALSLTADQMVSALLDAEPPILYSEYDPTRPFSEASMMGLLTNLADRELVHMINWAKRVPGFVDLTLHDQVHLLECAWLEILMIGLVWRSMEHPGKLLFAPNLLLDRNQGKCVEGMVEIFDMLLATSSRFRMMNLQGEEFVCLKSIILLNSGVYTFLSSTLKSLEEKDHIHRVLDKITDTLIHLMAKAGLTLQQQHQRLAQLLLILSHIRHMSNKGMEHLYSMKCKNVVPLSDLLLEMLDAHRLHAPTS
Sequence of ERα in MCF7 cells (P03372 whole entry): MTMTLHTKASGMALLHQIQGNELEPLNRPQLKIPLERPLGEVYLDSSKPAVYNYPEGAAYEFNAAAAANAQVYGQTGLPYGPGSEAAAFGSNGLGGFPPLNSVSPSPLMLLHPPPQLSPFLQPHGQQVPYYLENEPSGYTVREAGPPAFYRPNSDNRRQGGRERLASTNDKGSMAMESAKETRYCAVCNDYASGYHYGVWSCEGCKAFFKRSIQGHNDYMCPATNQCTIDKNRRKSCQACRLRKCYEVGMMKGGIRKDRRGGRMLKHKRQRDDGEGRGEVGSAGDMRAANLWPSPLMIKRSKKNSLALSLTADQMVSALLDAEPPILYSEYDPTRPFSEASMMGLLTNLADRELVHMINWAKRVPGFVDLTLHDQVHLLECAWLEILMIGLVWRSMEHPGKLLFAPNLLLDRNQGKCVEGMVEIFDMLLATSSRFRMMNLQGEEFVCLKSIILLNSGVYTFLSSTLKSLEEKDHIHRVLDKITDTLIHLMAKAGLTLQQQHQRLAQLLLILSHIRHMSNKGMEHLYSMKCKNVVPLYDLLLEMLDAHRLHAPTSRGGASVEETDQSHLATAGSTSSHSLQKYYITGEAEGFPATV
Sequence of His6-ERα298-554 D538G mutant (ERα ligand-binding domain) (P03372 298-554 D538G): as the sequence (P03372 298-554 Y537S) above, with S240Y, D241G counted along it
Sequence of His6-ERα298-554 WT (ERα ligand-binding domain) (P03372 298-554): as the sequence (P03372 298-554 Y537S) above, with S240Y counted along it

Structure (SMILES) | IC50 [1, 7] | IC50 [2, 7] | IC50 [3, 7] | IC50 [4] | IC50 [5] | IC50 [6] | DC50 (ERα in MCF7 cells) | % Degradation at 3 μM (ERα in MCF7 cells) | IC50 ([1]; protocol with 3 nM estradiol) | IC50 ([2]; protocol with 3 nM estradiol) | IC50 ([3]; protocol with 3 nM estradiol)
Oc1ccc2c(c1)C(c1ccc(O[C@H]3CCN(CCCF)C3)cc1)=C(c1ccc(OC(F)(F)F)cc1)CC2 [Example 8, 8-[4-[(3S)-1-(3-fluoropropyl)pyrrolidin-3-yl]oxyphenyl]-7-[4-(trifluoromethoxy)phenyl]-5,6-dihydronaphthalen-2-ol] | 1390 nM | > 4000 nM | > 4000 nM | > 999 nM | > 999 nM | > 999 nM | 25 nM | 84% | – | – | –
Oc1ccc2c(c1)C(c1ccc(O[C@H]3CCN(CCCF)C3)cc1)=C(c1ccc(SC(F)(F)F)cc1)CC2 [Example 9, 8-[4-[(3S)-1-(3-fluoropropyl)pyrrolidin-3-yl]oxyphenyl]-7-[4-(trifluoromethylsulfanyl)phenyl]-5,6-dihydronaphthalen-2-ol] | 2290 nM | > 4000 nM | > 4000 nM | 44 nM | > 999 nM | 47 nM | 28 nM | 79% | – | – | –
Oc1ccc2c(c1)C(c1ccc(O[C@H]3CCN(CCCF)C3)cc1)=C(c1ccc(OC(F)(F)F)cc1F)CC2 [Example 10, 8-[4-[(3S)-1-(3-fluoropropyl)pyrrolidin-3-yl]oxyphenyl]-7-[2-fluoro-4-(trifluoromethoxy)phenyl]-5,6-dihydronaphthalen-2-ol] | 1270 nM | > 4000 nM | > 4000 nM | 85 nM | > 999 nM | 29 nM | 15 nM | 78% | – | – | –
CC(C)(C)c1ccc(C2=C(c3ccc(O[C@H]4CCN(CCCF)C4)cc3)c3cc(O)ccc3CC2)cc1 [Example 11, 7-(4-tert-butylphenyl)-8-[4-[(3S)-1-(3-fluoropropyl)pyrrolidin-3-yl]oxyphenyl]-5,6-dihydronaphthalen-2-ol] | > 4000 nM | > 4000 nM | > 4000 nM | 44 nM | > 999 nM | 162 nM | 49 nM | 80% | – | – | –
Cc1ccc(C2=C(c3ccc(O[C@H]4CCN(CCCF)C4)cc3)c3ccc(O)cc3SC2)c(F)c1 [Example 16, 3-(2-fluoro-4-methyl-phenyl)-4-[4-[(3S)-1-(3-fluoropropyl)pyrrolidin-3-yl]oxyphenyl]-2H-thiochromen-7-ol] | – | – | – | 0.9 nM | 10 nM | 2 nM | 1 nM | 90% | 4 nM | 16 nM | 6 nM
Cc1cc(C2=C(c3ccc(O[C@H]4CCN(CCCF)C4)cc3)c3ccc(O)cc3SC2)ccc1Cl [Example 17, 3-(4-chloro-3-methyl-phenyl)-4-[4-[(3S)-1-(3-fluoropropyl)pyrrolidin-3-yl]oxyphenyl]-2H-thiochromen-7-ol] | – | – | – | 0.4 nM | 3 nM | 1 nM | 2 nM | 87% | 7 nM | 39 nM | 14 nM
Oc1ccc2c(c1)SCC(c1ccc(Cl)cc1F)=C2c1ccc(O[C@H]2CCN(CCCF)C2)cc1 [Example 18, 3-(4-chloro-2-fluoro-phenyl)-4-[4-[(3S)-1-(3-fluoropropyl)pyrrolidin-3-yl]oxyphenyl]-2H-thiochromen-7-ol] | – | – | – | 0.5 nM | 7 nM | 1 nM | 0.6 nM | 90% | 9 nM | 39 nM | 15 nM
COc1ccc(C2=C(c3ccc(O[C@H]4CCN(CCCF)C4)cc3)c3ccc(O)cc3SC2)cc1F [Example 23, 3-(3-fluoro-4-methoxy-phenyl)-4-[4-[(3S)-1-(3-fluoropropyl)pyrrolidin-3-yl]oxyphenyl]-2H-thiochromen-7-ol] | 50 nM | 803 nM | 678 nM | 7 nM | > 999 nM | 14 nM | 0.3 nM | 93% | – | – | –
COc1ccc(C2=C(c3ccc(O[C@H]4CCN(CCCF)C4)cc3)c3ccc(O)cc3SC2)c(F)c1 [Example 24, 3-(2-fluoro-4-methoxy-phenyl)-4-[4-[(3S)-1-(3-fluoropropyl)pyrrolidin-3-yl]oxyphenyl]-2H-thiochromen-7-ol] | 5 nM | 80 nM | 44 nM | 0.3 nM | 6 nM | 0.9 nM | 0.2 nM | 91% | – | – | –
Cc1ccc(C2=C(c3ccc(O[C@H]4CCN(CCCF)C4)cc3)c3ccc(C(=O)O)cc3SC2)c(F)c1 [Example 25, 3-(2-fluoro-4-methyl-phenyl)-4-[4-[(3S)-1-(3-fluoropropyl)pyrrolidin-3-yl]oxyphenyl]-2H-thiochromene-7-carboxylic acid] | 1420 nM | > 4000 nM | > 4000 nM | 16 nM | 160 nM | 31 nM | 19 nM | 93% | – | – | –
CCOc1ccc(C2=C(c3ccc(O[C@H]4CCN(CCCF)C4)cc3)c3ccc(O)cc3SC2)c(F)c1 [Example 26, 3-(4-ethoxy-2-fluoro-phenyl)-4-[4-[(3S)-1-(3-fluoropropyl)pyrrolidin-3-yl]oxyphenyl]-2H-thiochromen-7-ol] | – | – | – | 0.9 nM | 10 nM | 2 nM | 0.8 nM | 90% | 3 nM | 67 nM | 39 nM
CCOc1ccc(C2=C(c3ccc(O[C@H]4CCN(CCCF)C4)cc3)c3ccc(O)cc3SC2)c(F)n1 [Example 27, 3-(6-ethoxy-2-fluoro-3-pyridyl)-4-[4-[(3S)-1-(3-fluoropropyl)pyrrolidin-3-yl]oxyphenyl]-2H-thiochromen-7-ol] | 2 nM | 38 nM | 21 nM | 0.4 nM | 6 nM | 2 nM | 0.6 nM | 94% | – | – | –
Oc1ccc2c(c1)SCC(c1ccc3c(c1)OCCO3)=C2c1ccc(O[C@H]2CCN(CCCF)C2)cc1 [Example 28, 3-(2,3-dihydro-1,4-benzodioxin-6-yl)-4-[4-[(3S)-1-(3-fluoropropyl)pyrrolidin-3-yl]oxyphenyl]-2H-thiochromen-7-ol] | 4 nM | 68 nM | 41 nM | 0.7 nM | 11 nM | 2 nM | 0.3 nM | 80% | – | – | –
CC1(C)Cc2cc(C3=C(c4ccc(O[C@H]5CCN(CCCF)C5)cc4)c4ccc(O)cc4SC3)ccc2N1 [Example 29, 3-(2,2-dimethylindolin-5-yl)-4-[4-[(3S)-1-(3-fluoropropyl)pyrrolidin-3-yl]oxyphenyl]-2H-thiochromen-7-ol] | 14 nM | 240 nM | 130 nM | 0.4 nM | 6 nM | 0.9 nM | 0.2 nM | 92% | – | – | –
